From patent US20220016079A1, “COMBINATION TREATMENT OF HIV INFECTIONS” (priority 2018, published 2022) come the findings set out here.

Where “and” joins values, the source holds several entries; their conditions need not be identical. Identical values can stand only once.

The subject of series [1] is HIV-1 (JR-CSF). Description: Efficacy study in HIV-1 infected humanized BLT mice: viral RNA levels in organ reservoirs (qPCR). Type of series: in vivo. An excerpt:
Methods: Humanized BLT mice were generated by implanting human fetal liver and thymus tissues under the kidney capsule of an immunodeficient NOD scid gamma (NSG=NOD.Cg-Prkdc^scidII12rg^tm1Wjl/SzJ) mouse, followed by an administration of autologous human fetal liver CD34+ cells (human hematopoietic stem cells). In BLT mice, T cell education occured in the human thymic tissue, resulting in complete systemic reconstitution of all major human hematopoietic lineages including T, B, monocyte/macrophage, dendritic, and natural killer cells. The extensive systemic and genital mucosal reconstitution with human lymphoid cells rendered female humanized BLT mice susceptible to both vaginal and rectal HIV infection.
Humanized BLT mice were generated by implanting 1-mm^3 pieces of human fetal liver and thymus tissues (Advanced Bioscience Resources) under the kidney capsule in 6 to 8-week-old female NSG mice (Jackson Laboratories) bred at The Scripps Research Institute (TSRI). Each cohort was produced with tissues from a single donor. CD34+ HSPC were purified from autologous fetal liver tissue, isolated by magnetic bead selection for CD34+ cells (Miltenyi), phenotyped cytometrically for engraftment success (CD34+, HLA DR-), and cryopreserved until injection (200,000 CD34+ cells) into mice 3 weeks after thymus/liver implantation. Human reconstitution was verified by flow cytometry (CD45+, CD3+, CD4+ and CD8+) in peripheral blood of the mice.
R5 HIV (JR-CSF) was produced by 293T transfection and quantified by p24 ELISA. Humanized mice were infected with JR-CSF (200 ng of p24) and viral replication quantified weekly by qPCR for up to 16 weeks.
Methods: Thirty-two BLT mice were infected with HIV-1. 12 weeks later mice were split in 4 groups (n=8), treated with various regimen and analyzed for 6 weeks. Group A received both vehicles for 4 weeks. Group B received Debio-1143 (100 mg/kg; QD1-5, p.o.) for 4 weeks (Debio-1143 was given 5 days a week for 4 weeks). Group C received the anti-PD-1 antibody (200 μg/dose, i.p., BIW) for 4 weeks. Group D received the combination of Debio-1143 (100 mg/kg; QD1-5, p.o.) together with the anti-PD-1 antibody (200 μg/dose i.p. BIW) for 4 weeks. Body weight, HIV-1 loads and PD-1 expression on CD8+ T cells were analyzed once weekly. After the 4 weeks of treatment, three mice per group were sacrificed for bioanalytical assessments. The remaining mice (4×5=20) were sacrificed 2 weeks after treatment completion and viral RNA levels in organ reservoirs (spleen, thymic organoid, lung, spleen, lymph nodes and liver) were quantified by qPCR.

The test system of series [2] is latent HIV in JLat 10.6-GFP, 2D10 and 5A8 cells. Nature of the series: HIV reactivation using latent reporter cell lines (GFP expression by flow cytometry). Type of series: cell-based, human. An excerpt:
The experiment analyzed the ability of DEB10-1143 at reactivating latent HIV using three well-characterized latent T cell lines—JLat 10.6-GFP, 2D10 and 5A8 (Jordan A, Bisgrove D, Verdin E (2003) EMBO J 22(8): 1868-1877. doi: 10.1093/emboj/cdg188. PMID: 12682019; Sakane N, Kwon HS, Pagans S, Kaehlcke K, Mizusawa Y, Kamada M, et al. (2011) PLoS Pathog 7(8): e1002184. PMID: 21876670; Pearson R, Kim Y K, Hokello J, Lassen K, Friedman J, Tyagi M, et al. (2008) J Virol 82(24): 12291-12303. PMID: 18829756). These cell lines contain part of the HIV genome and the GFP reporter gene and are unable to produce infective HIV particles. Drug titration and kinetic studies were conducted. Debio-1143 was tested alone or in combination with the current antiretroviral therapy (ART), consisting of 20 μM tenofovir disoproxil fumarate [TDF], 10 μM emtricitabine [FTC] and 1 μM raltegravir [RAL]. ART and DEB10-1143 were added simultaneously to cells.
Method: Cells (100,000 cells/100 μL) were treated in triplicate for 0 and 72 h with increasing concentrations of DEB10-1143 (0 to 20.5 μM) used alone or in combination with ART (see above). ART and DEB10-1143 were added simultaneously to cells. Cells were analyzed for GFP expression by flow cytometry at the indicated time points counting all cells per replicate, and reported as % GFP+cells.
A general note: A flow cytometer gives signals particle by particle.

The subject of series [3] is CD4+ T cell line JLat 10.6. Nature of the series: Cellular cytotoxicity (LDH assay and CellTiter Glo assay). Type of series: cell-based, human. The note with it: even at high concentration (20 μM), 72 h. On the procedure: (§1) This experiment examined the cellular cytotoxicity of DEB10-1143 alone and DEB10-1143+ART on the human CD4+ T cell line JLat 10.6. DEB10-1143 was tested as well on human primary CD4+ T lymphocytes. Drug titration and kinetic studies were conducted.
(§2) Method: Cells (100,000 cells/100 μL) were treated in triplicate for 72 h with increasing concentrations of DEB10-1143 (0 to 20 μM) used alone or in combination with ART (20 μM TDF, 10 μM FTC and 1 μM Raltegravir). ART and DEB10-1143 were added simultaneously to cells. Saponin (0.5%) was used as positive control due to its ability to induce cell death.
(§3) Cellular cytotoxicity was analyzed by Lactate dehydrogenase (LDH) assay and CellTiter Glo assay.
(§4) LDH assay: LDH is an oxidoreductase enzyme that catalyses the interconversion of pyruvate and lactate. Cells release LDH into the bloodstream after tissue damage or red blood cell hemolysis. […] In this particular assay, LDH reduces NAD to NADH, which is specifically detected by colorimetric (490 nm) assay.
(§5) CellTiter Glo assay: The CellTiter-Glo® 2.0 Assay determines the number of viable cells in culture by quantifying ATP, which indicates the presence of metabolically active cells. Luminescence readout is directly proportional to the number of viable cells in culture. Data are expressed in luminescence (RLU) in triplicate
In general terms: In ATP-based viability assays light output follows the ATP content of the culture.

Series [4] has as its system primary CD4+ T-lymphocytes. The series is described as above. Type of series: cell-based, human. The note with it: even at high concentration (20 μM), 72 h. On the procedure:
as §1, §2, §3, §4, §5

On to `CN[C@@H](C)C(=O)N[C@H]1CN(C(=O)CC(C)C)CC[C@H]2CC[C@@H](C(=O)NC(c3ccccc3)c3ccccc3)N2C1=O` [Debio 1143, (5S,8S,10aR)-N-benzhydryl-5-((S)-2-(methylamino)propanamido)-3-(3-methylbutanoyl)-6-oxodecahydropyrrolo[1,2-a][1,5]diazocine-8-carboxamide], for which the “HIV load in organs (viral RNA levels in organ reservoirs)” value in series [1] (2 weeks after treatment completion, CD4+ cells of spleen, thymic organoid, lung, lymph nodes, liver) is on record as “has no effect”. Further, in series [1] (individual mice #1-5), the “Tissue HIV Load at Week 18, Liver” value is 5.2 Log Viral RNA Copies/100,000 CD4+ Cells and 4.2 Log Viral RNA Copies/100,000 CD4+ Cells and 4.9 Log Viral RNA Copies/100,000 CD4+ Cells and 5.5 Log Viral RNA Copies/100,000 CD4+ Cells and 5.9 Log Viral RNA Copies/100,000 CD4+ Cells; the “Tissue HIV Load at Week 18, Lung” value was 3.9 Log Viral RNA Copies/100,000 CD4+ Cells and 5.7 Log Viral RNA Copies/100,000 CD4+ Cells and 4.4 Log Viral RNA Copies/100,000 CD4+ Cells and 6.1 Log Viral RNA Copies/100,000 CD4+ Cells and 6.5 Log Viral RNA Copies/100,000 CD4+ Cells; the “Tissue HIV Load at Week 18, Lymph nodes” value was 4.4 Log Viral RNA Copies/100,000 CD4+ Cells and 5 Log Viral RNA Copies/100,000 CD4+ Cells and 5.3 Log Viral RNA Copies/100,000 CD4+ Cells and 6.3 Log Viral RNA Copies/100,000 CD4+ Cells and 7.2 Log Viral RNA Copies/100,000 CD4+ Cells; the “Tissue HIV Load at Week 18, Spleen” value was 4.4 Log Viral RNA Copies/100,000 CD4+ Cells and 6.4 Log Viral RNA Copies/100,000 CD4+ Cells and 5.2 Log Viral RNA Copies/100,000 CD4+ Cells and 5.5 Log Viral RNA Copies/100,000 CD4+ Cells and 6.7 Log Viral RNA Copies/100,000 CD4+ Cells. Moreover, the “Tissue HIV Load at Week 18, Thymic organoid” value in series [1] (individual mice #1-5) was 4.6 Log Viral RNA Copies/100,000 CD4+ Cells and 5.3 Log Viral RNA Copies/100,000 CD4+ Cells and 3.9 Log Viral RNA Copies/100,000 CD4+ Cells and 5.7 Log Viral RNA Copies/100,000 CD4+ Cells and 6.2 Log Viral RNA Copies/100,000 CD4+ Cells. In series [1] (mean of 5 mice), the “Tissue HIV Load at Week 18, Liver” value is on record as 5.14 Log Viral RNA Copies/100,000 CD4+ Cells; the “Tissue HIV Load at Week 18, Lung” value is 5.32 Log Viral RNA Copies/100,000 CD4+ Cells; the “Tissue HIV Load at Week 18, Lymph nodes” value is 5.64 Log Viral RNA Copies/100,000 CD4+ Cells; the “Tissue HIV Load at Week 18, Spleen” value was 5.64 Log Viral RNA Copies/100,000 CD4+ Cells. Besides, the “Tissue HIV Load at Week 18, Thymic organoid” value in series [1] (mean of 5 mice) is 5.14 Log Viral RNA Copies/100,000 CD4+ Cells. Further, the “degree of HIV reactivation, comparison of cell lines” value in series [2] (2D10 cells compared to the two other cell lines) was “shows the best degree of HIV reactivation”. In addition, the “influence of ART on the degree of latency reversal” value in series [2] (in combination with ART (20 μM TDF, 10 μM FTC, 1 μM RAL), added simultaneously) is listed as “does not influence”. The “HIV reactivation (% GFP+ cells)” value in series [2] (single agent, 0 to 20.5 μM, 72 h, JLat 10.6-GFP, 2D10 and 5A8 cells) is “possesses the capacity of activating latent HIV”. Further, the cytotoxicity entry in series [3] is recorded as “no significant cytotoxicity”. The cytotoxicity entry in series [4] was “no significant cytotoxicity”.
